From ChEMBL document CHEMBL2417397, “Synthesis and biological properties of new N-Mannich bases derived from 3-methyl-3-phenyl- and 3,3-dimethyl-succinimides. Part V” (Eur J Med Chem, 2013)
Calls of active or inactive are those of the source. No cut-off for these calls is given here.

Columns and labels:
[1] = species on record: Rattus norvegicus; test: Ratio of phenytoin ED50 to compound ED50 for Sprague-Dawley albino rat; assay type: functional
[2] = system: Rattus norvegicus; test: Anticonvulsant activity in Sprague-Dawley albino rat assessed as protection against maximal electroshock-induced seizures at 30 mg/kg, po after 0.5 hrs; assay type: functional
[3] = system: Rattus norvegicus; test: Anticonvulsant activity in Sprague-Dawley albino rat assessed as protection against maximal electroshock-induced seizures at 30 mg/kg, po after 0.25 hrs; assay type: functional
[4] = system: Mus musculus; test: Anticonvulsant activity in CF-1 albino mouse assessed as protection against 6 Hz psychomotor seizure at 100 mg/kg, ip after 1 hr; assay type: functional; conditions: route intraperitoneal
[5] = system: Mus musculus; test: Anticonvulsant activity in CF-1 albino mouse assessed as protection against 6 Hz psychomotor seizure at 100 mg/kg, ip after 4 hrs; assay type: functional
[6] = system: Mus musculus; test: Anticonvulsant activity in CF-1 albino mouse assessed as protection against maximal electroshock-induced seizures at 300 mg/kg, ip after 0.5 hrs; assay type: functional, organism-based; parameters: dose 300 mg/kg
[7] = target: Sodium channel protein type 2 subunit alpha (Homo sapiens) (UniProt Q99250); test: Inhibition of NaV1.2 channel (unknown origin) at 0.1 uM by electrophysiology
Chain of Sodium channel protein type 2 subunit alpha (Homo sapiens) (Q99250 whole entry, looked up): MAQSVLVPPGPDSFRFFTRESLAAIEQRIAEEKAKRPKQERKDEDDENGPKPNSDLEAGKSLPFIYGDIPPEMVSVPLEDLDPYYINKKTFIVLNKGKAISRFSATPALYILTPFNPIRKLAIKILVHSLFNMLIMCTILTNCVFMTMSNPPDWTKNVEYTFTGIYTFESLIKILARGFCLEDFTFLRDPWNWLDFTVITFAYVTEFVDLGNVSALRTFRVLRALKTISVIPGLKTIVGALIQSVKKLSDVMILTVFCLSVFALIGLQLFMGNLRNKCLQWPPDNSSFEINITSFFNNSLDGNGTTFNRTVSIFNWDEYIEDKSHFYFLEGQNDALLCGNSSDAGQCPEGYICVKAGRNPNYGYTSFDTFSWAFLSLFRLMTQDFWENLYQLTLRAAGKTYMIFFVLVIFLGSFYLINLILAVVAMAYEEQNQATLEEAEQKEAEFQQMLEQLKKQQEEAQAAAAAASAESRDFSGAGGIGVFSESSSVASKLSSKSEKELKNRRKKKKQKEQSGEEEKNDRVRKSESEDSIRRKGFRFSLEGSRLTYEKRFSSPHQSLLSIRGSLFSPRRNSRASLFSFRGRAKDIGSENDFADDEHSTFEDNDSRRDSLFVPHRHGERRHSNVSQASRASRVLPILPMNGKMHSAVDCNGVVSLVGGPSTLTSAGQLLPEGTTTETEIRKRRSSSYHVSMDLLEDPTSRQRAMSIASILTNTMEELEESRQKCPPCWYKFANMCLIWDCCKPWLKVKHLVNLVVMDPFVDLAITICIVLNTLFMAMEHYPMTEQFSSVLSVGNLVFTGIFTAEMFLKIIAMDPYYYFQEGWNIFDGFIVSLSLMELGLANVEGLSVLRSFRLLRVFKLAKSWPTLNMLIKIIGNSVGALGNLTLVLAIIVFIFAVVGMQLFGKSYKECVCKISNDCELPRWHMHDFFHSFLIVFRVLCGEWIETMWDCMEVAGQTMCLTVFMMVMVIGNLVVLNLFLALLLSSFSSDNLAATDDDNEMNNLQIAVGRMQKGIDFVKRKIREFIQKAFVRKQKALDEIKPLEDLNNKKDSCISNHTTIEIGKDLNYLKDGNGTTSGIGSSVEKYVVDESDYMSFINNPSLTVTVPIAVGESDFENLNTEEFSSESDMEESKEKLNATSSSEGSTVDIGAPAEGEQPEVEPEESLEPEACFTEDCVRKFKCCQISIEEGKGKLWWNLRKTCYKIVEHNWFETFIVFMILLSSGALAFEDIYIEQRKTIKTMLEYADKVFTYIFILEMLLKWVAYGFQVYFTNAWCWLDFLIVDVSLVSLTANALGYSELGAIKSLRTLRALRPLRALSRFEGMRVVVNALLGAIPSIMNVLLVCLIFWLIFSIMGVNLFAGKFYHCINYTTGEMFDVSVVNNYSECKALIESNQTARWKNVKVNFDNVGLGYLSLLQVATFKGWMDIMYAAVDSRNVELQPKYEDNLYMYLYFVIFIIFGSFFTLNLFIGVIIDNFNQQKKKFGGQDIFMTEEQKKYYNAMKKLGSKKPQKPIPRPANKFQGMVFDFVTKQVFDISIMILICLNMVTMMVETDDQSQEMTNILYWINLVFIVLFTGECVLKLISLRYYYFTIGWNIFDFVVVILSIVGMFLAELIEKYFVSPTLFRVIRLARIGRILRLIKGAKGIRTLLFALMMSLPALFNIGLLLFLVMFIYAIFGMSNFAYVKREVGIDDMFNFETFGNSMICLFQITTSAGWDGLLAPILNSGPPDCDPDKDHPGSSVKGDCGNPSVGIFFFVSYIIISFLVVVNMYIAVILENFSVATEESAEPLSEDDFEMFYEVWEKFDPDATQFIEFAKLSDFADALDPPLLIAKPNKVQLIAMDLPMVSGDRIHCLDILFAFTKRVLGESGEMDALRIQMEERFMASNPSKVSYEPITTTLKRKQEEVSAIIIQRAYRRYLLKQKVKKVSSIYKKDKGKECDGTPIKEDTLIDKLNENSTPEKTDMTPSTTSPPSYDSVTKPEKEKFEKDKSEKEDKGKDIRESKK

[8] = species on record: Rattus norvegicus; test: Protective index, ratio of TD50 for Sprague-Dawley albino rat by rotarod test to ED50 for Sprague-Dawley albino rat; assay type: functional
[9] = system: Vibrio harveyi; test: Antimutagenic activity in Vibrio harveyi BB7 assessed as inhibition of 4-nitroquinoline-N-oxide-induced mutation; assay type: functional
[10] = Neurotoxicity in ip dosed CF-1 albino mouse at 30 to 300 mg/kg, ip after 0.5 to 4 hrs; assay type: toxicity, organism-based; parameters: route intraperitoneal; conditions: CF-1, mouse, in vivo
[11] = system: Rattus norvegicus; test: Neurotoxicity in Sprague-Dawley albino rat assessed as motor impairment at 30 mg/kg, po; assay type: toxicity, organism-based; parameters: dose 30 mg/kg, route oral; conditions: in vivo
[12] = system: Vibrio harveyi; test: Induction of mutagenecity in Vibrio harveyi BB7X; assay type: organism-based; conditions: in vivo
[13] = system: Mus musculus; test: Neurotoxicity in CF-1 albino mouse at 300 mg/kg, ip after 0.5 hrs by rotarod test; assay type: toxicity, organism-based; parameters: dose 300 mg/kg, route intraperitoneal; conditions: in vivo
[14] = system: Rattus norvegicus; test: Anticonvulsant activity in Sprague-Dawley albino rat assessed as protection against maximal electroshock-induced seizures at 30 mg/kg, po after 1 hr; assay type: functional
[15] = system: Vibrio harveyi; test: Antimutagenic activity in Vibrio harveyi BB7XM assessed as inhibition of 4-nitroquinoline-N-oxide-induced mutation; assay type: functional
[16] = system: Mus musculus; test: Anticonvulsant activity in CF-1 albino mouse assessed as protection against 6 Hz psychomotor seizure at 100 mg/kg, ip after 2 hrs; assay type: functional
[17] = Neurotoxicity in ip dosed CF-1 albino mouse after 4 hrs by rotarod test; assay type: toxicity, organism-based; conditions: CF-1, mouse, in vivo
[18] = system: Vibrio harveyi; test: Induction of mutagenecity in Vibrio harveyi BB7; assay type: organism-based; conditions: in vivo
[19] = system: Mus musculus; test: Anticonvulsant activity in CF-1 albino mouse assessed as protection against 6 Hz psychomotor seizure at 100 mg/kg, ip after 0.5 hrs; assay type: functional
[20] = system: Mus musculus; test: Anticonvulsant activity in CF-1 albino mouse assessed as time of peak effect for protection against maximal electroshock-induced seizures at 30 to 300 mg/kg, ip; assay type: functional; conditions: dose mg/kg 30-300; route intraperitoneal
[21] = system: Vibrio harveyi; test: Antimutagenic activity in Vibrio harveyi BB7X assessed as inhibition of 4-nitroquinoline-N-oxide-induced mutation; assay type: functional
[22] = system: Rattus norvegicus; test: Anticonvulsant activity in Sprague-Dawley albino rat assessed as protection against maximal electroshock-induced seizures at 30 mg/kg, po after 2 hrs; assay type: functional
[23] = system: Mus musculus; test: Anticonvulsant activity in ip dosed CF-1 albino mouse assessed as protection against maximal electroshock-induced seizures after 0.5 to 4 hrs; assay type: functional
[24] = target: Sodium channel protein type 2 subunit alpha (Homo sapiens) (UniProt Q99250); test: Inhibition of NaV1.2 channel (unknown origin) at 1 uM by electrophysiology
[25] = system: Vibrio harveyi; test: Antimutagenic activity in Vibrio harveyi BB7M assessed as inhibition of 4-nitroquinoline-N-oxide-induced mutation; assay type: functional
[26] = target: Sodium channel protein type 2 subunit alpha (Homo sapiens) (UniProt Q99250); test: Inhibition of NaV1.2 channel (unknown origin) at 10 uM by electrophysiology
[27] = target: Sodium channel protein type 2 subunit alpha (Homo sapiens) (UniProt Q99250); test: Inhibition of NaV1.2 channel (unknown origin) at 100 uM by electrophysiology
[28] = system: Rattus norvegicus; test: Anticonvulsant activity in Sprague-Dawley albino rat assessed as time of peak effect for protection against maximal electroshock-induced seizures at 30 mg/kg, po; assay type: functional
[29] = species on record: Mus musculus; test: Protective index, ratio of TD50 for CF-1 albino mouse by rotarod test to ED50 for CF-1 albino mouse; assay type: functional
[30] = system: Rattus norvegicus; test: Anticonvulsant activity in Sprague-Dawley albino rat assessed as protection against maximal electroshock-induced seizures at 30 mg/kg, po after 4 hrs; assay type: functional
[31] = system: Vibrio harveyi; test: Induction of mutagenecity in Vibrio harveyi BB7XM; assay type: organism-based; conditions: in vivo
[32] = system: Vibrio harveyi; test: Induction of mutagenecity in Vibrio harveyi BB7M; assay type: organism-based; conditions: in vivo
[33] = Neurotoxicity in po dosed Sprague-Dawley albino rat at 30 mg/kg, po after 0.25 to 4 hrs by rotarod test; assay type: toxicity, organism-based; parameters: dose 30 mg/kg, route oral; conditions: in vivo
[34] = system: Rattus norvegicus; test: Anticonvulsant activity in po dosed Sprague-Dawley albino rat assessed as protection against maximal electroshock-induced seizures after 0.25 to 4 hrs; assay type: functional
[35] = system: Mus musculus; test: Anticonvulsant activity in ip dosed CF-1 albino mouse assessed as protection against maximal electroshock-induced seizures after 4 hrs; assay type: functional
[36] = system: Mus musculus; test: Anticonvulsant activity in CF-1 albino mouse assessed as protection against 6 Hz psychomotor seizure at 100 mg/kg, ip after 0.25 hrs; assay type: functional
[37] = system: Mus musculus; test: Neurotoxicity in CF-1 albino mouse at 300 mg/kg, ip after 4 hrs by rotarod test; assay type: toxicity, organism-based; parameters: dose 300 mg/kg, route intraperitoneal; conditions: in vivo
[38] = Neurotoxicity in ip dosed CF-1 albino mouse after 0.5 hrs by rotarod test; assay type: toxicity, organism-based; conditions: CF-1, mouse, in vivo
[39] = system: Mus musculus; test: Anticonvulsant activity in CF-1 albino mouse assessed as protection against 6 Hz psychomotor seizure at 100 mg/kg, ip after 0.25 to 4 hrs; assay type: functional; conditions: route intraperitoneal

With `CC1(c2ccccc2)CC(=O)N(CN2CCN(c3ccc(F)cc3)CC2)C1=O` (centres undefined) the “Ratio ED50” value [1] was 3.5, the Activity [2] was 25% and the Activity [3] was 25%. For the same compound, the Activity [4] was 25%, the Activity [5] was “Active” and the Activity [6] was “inactive”. The inhibition [7] was 10.6%, the “Ratio TD50/ED50” value [8] was 8.43 and the “inhibition (INH)” value [9] was 8%. The TD50 [10] was greater than 500 mg/kg, the Activity [11] was “Non-toxic” and the Activity [12] was “Non-toxic”. The Activity [13] was “Non-toxic”, the Activity [14] was 50% and the “inhibition (INH)” value [15] was 49%. The Activity [16] was “Active”, the TD50 at 4 h [17] was 300 mg/kg and the Activity [18] was “Non-toxic”. For the same compound, the Activity [19] was “inactive”, the Time [20] was 8 h and the “inhibition (INH)” value [21] was 0%. The Activity [22] was 75%, the ED50 [23] was 120 mg/kg and the inhibition [24] was 14.9%. For the same compound, the “inhibition (INH)” value [25] was 62%, the inhibition [26] was 26.8% and the inhibition [27] was 64%. For the same compound, the Time [28] was 4 h, the “Ratio TD50/ED50” value [29] was 4.16 and the Activity [30] was 75%. The Activity [31] was “Non-toxic”, the Activity [32] was “Non-toxic” and the TD50 [33] was 65.6 mg/kg. The ED50 [34] was 7.78 mg/kg, the MED50 [35] was 100 mg/kg and the Activity ([36]; route intraperitoneal) was 50%.

With `CC1(c2ccccc2)CC(=O)N(CN2CCN(c3cccc(Cl)c3)CC2)C1=O` (centres undefined) the Activity [2] was 25%, the Activity [3] was “inactive” and the Activity [4] was 50%. The Activity ([5]; route intraperitoneal) was 25%, the Activity [37] was “Non-toxic” and the Activity [6] was “inactive”. The inhibition [7] was 16.3%, the “Ratio TD50/ED50” value [8] was greater than 8.95 and the “inhibition (INH)” value [9] was 25%. The TD50 [10] was 496 mg/kg, the Activity [11] was “Non-toxic” and the Activity [12] was “Non-toxic”. For the same compound, the Activity [14] was 25%, the “inhibition (INH)” value [15] was 57% and the TD50 at 0.5 h [38] was 300 mg/kg. The Activity ([16]; route intraperitoneal) was 50%, the Activity [18] was “Non-toxic” and the Activity ([19]; route intraperitoneal) was 25%. For the same compound, the Time [20] was 6 h, the “inhibition (INH)” value [21] was 0% and the Activity [22] was “Active”. For the same compound, the ED50 [23] was 41.1 mg/kg, the inhibition [24] was 7.76% and the “inhibition (INH)” value [25] was 61%. For the same compound, the inhibition [26] was 39.6%, the Activity [39] was 50% and the inhibition [27] was 86.9%. The Time [28] was 2 h, the “Ratio TD50/ED50” value [29] was 12.08 and the Activity [30] was 50%. For the same compound, the Activity [31] was “Non-toxic”, the Activity [32] was “Non-toxic” and the TD50 [33] was greater than 250 mg/kg. The ED50 [34] was 27.9 mg/kg, the MED50 [35] was 30 mg/kg and the Activity [36] was “inactive”.

With `CC1(c2ccccc2)CC(=O)N(CN2CCN(c3ccc(Cl)c(Cl)c3)CC2)C1=O` (centres undefined) the Activity [2] was “inactive”, the Activity [3] was “inactive” and the Activity [4] was 25%. For the same compound, the Activity [5] was “inactive”, the Activity [37] was “Non-toxic” and the Activity [6] was “inactive”. The inhibition [7] was 3.08%, the “Ratio TD50/ED50” value [8] was 11.09 and the TD50 [10] was greater than 500 mg/kg. The Activity [11] was “Non-toxic”, the Activity [12] was “Non-toxic” and the Activity [14] was “inactive”. The TD50 at 0.5 h [38] was 300 mg/kg, the Activity [16] was “inactive” and the Activity [18] was “Non-toxic”. For the same compound, the Activity [19] was “inactive”, the Time [20] was 4 h and the Activity [22] was 50%. The ED50 [23] was 37.3 mg/kg, the inhibition [24] was 15.1% and the inhibition [26] was 58.6%. For the same compound, the Activity [39] was 50%, the inhibition [27] was 96.7% and the Time [28] was 4 h. For the same compound, the “Ratio TD50/ED50” value [29] was greater than 13.41, the Activity [30] was “Active” and the Activity [31] was “Toxic”. The Activity [32] was “Toxic”, the TD50 [33] was 168 mg/kg and the ED50 [34] was 15.1 mg/kg. It also gave an MED50 [35] of 30 mg/kg and an Activity ([36]; route intraperitoneal) of 25%.
